MIC data for five compounds are collected here from patent US20120283207A1, “ANTIBACTERIAL AMINOGLYCOSIDE ANALOGS” (Achaogen, Inc., priority 2009, published 2012).

The subject of assay [1] is P. aeruginosa ATCC 27853. The assay can be described thus: MIC assay, CLSI broth microdilution, APAE001. The format is cell-based. The following applies: Pseudomonas aeruginosa; APAE001 is ATCC27853; Mueller Hinton Broth, 35 C, 20 hours. The protocol:
(§1) Minimum inhibitory concentrations (MIC) were determined by reference Clinical and Laboratory Standards Institute (CLSI) broth microdilution methods per M7-A7 [2006]. Quality control ranges utilizing E. coli ATCC 25922, P. aeruginosa ATCC 27853 and S. aureus ATCC 29213, and interpretive criteria for comparator agents were as published in CLSI M100-S17 [2007]. Briefly, serial two-fold dilutions of the test compounds were prepared at 2× concentration in Mueller Hinton Broth. The compound dilutions were mixed in 96-well assay plates in a 1:1 ratio with bacterial inoculum. The inoculum was prepared by suspension of a colony from an agar plate that was prepared the previous day. Bacteria were suspended in sterile saline and added to each assay plate to obtain a final concentration of 5×10^5 CFU/mL. The plates were incubated at 35 C for 20 hours in ambient air.

Assay [2] relates to E. coli ATCC 25922. As to the kind of experiment: MIC assay, CLSI broth microdilution, AECO001. The format is cell-based. The following applies: Escherichia coli; AECO001 is ATCC25922; Mueller Hinton Broth, 35 C, 20 hours. The protocol: as §1
On the technique in general: In broth dilution the organism is exposed to a series of concentrations in liquid medium.

Converted amounts (≈) assume the structure as drawn.

One may read the MIC as the lowest concentration found to suppress growth. In the case of `NCC1=CC[C@@H](N)[C@@H](O[C@H]2[C@H](O[C@@H]3O[C@H](CO)[C@@H](O[C@H]4OC(CN)[C@@H](O)[C@H](O)[C@H]4N)[C@H]3O)[C@@H](O)[C@H](N)C[C@@H]2N)O1` (stereo partly shown) [1/10, 4′,5′-dehydro-3′-deoxy-neomycin], the MIC was at most 1 µg/mL in assay [1] and 1 to 16 µg/mL (≈ 1.72 to 27.6 µM) in assay [2].
On to `NCC1O[C@H](O[C@H]2[C@@H](O)[C@H](O[C@@H]3[C@@H](O)[C@H](N)C[C@H](N)[C@H]3O[C@H]3OC(CO)=CC[C@H]3N)O[C@@H]2CO)[C@H](N)[C@@H](O)[C@@H]1O` (stereo partly shown) [2/3, 4′,5′-dehydro-3′-deoxy-paromomycin], for which the MIC in assay [1] and in assay [2] was above 16 µg/mL each time.
On to `CNCC1=C[C@H](O)[C@@H](N)[C@@H](O[C@H]2[C@H](O[C@@H]3O[C@H](CO)[C@@H](O[C@H]4OC(CN)[C@@H](O)[C@H](O)[C@H]4N)[C@H]3O)[C@@H](O)[C@H](N)C[C@@H]2N)O1` (stereo partly shown) [3/3, 6′-N-methyl-4′,5′-dehydro-neomycin], for which the MIC is at most 1 µg/mL in assay [1] and 1 to 16 µg/mL (≈ 1.64 to 26.2 µM) in assay [2].
Regarding `CNCC1=CC[C@@H](N)[C@@H](O[C@H]2[C@H](O[C@@H]3O[C@H](CO)[C@@H](O[C@H]4OC(CN)[C@@H](O)[C@H](O)[C@H]4N)[C@H]3O)[C@@H](O)[C@H](N)C[C@@H]2N)O1` (stereo partly shown) [4/3, 6′-N-methyl-4′,5′-dehydro-3′-deoxy-neomycin], the MIC in assay [1] and in assay [2] was 1 to 16 µg/mL (≈ 1.68 to 26.9 µM) each time.
For `NCC[C@H](O)C(=O)N[C@@H]1C[C@H](N)[C@@H](O[C@H]2OC(CN)=CC[C@H]2N)[C@H](O[C@@H]2O[C@H](CO)[C@@H](O[C@H]3O[C@@H](CN)[C@@H](O)[C@H](O)[C@H]3N)[C@H]2O)[C@H]1O` [5/6, 1-(2(S)-hydroxy-4-amino-butyryl)-4′,5′-dehydro-3′-deoxy-neomycin], the MIC in assay [1] and in assay [2] was at most 1 µg/mL in each case.
